One data set relates to HIV virus. Put plainly: Test A (XTT): reduction of virus-caused cytotoxicity in MT4 cells. The format is cell-based. As to conditions: for inhibition at 0.01 µg/mL: 0.01 μg/ml; for % inhibition: Test A. How it is done:
Tests A, B, C, and D (XTT)
MT4 cells in a medium of RPMI 1640, 5% FCS, penicillin/streptomycin are adjusted to 2×10^5 cells/ml and seeded into microplates (96 wells/plate) […] cell suspension/well giving 2×10^4 cells/well. The compound to be tested is made into a 10 mg/ml mixture in DMSO and stored at −20° C. […] Further dilutions to […] are made in medium containing microplates. Fifty ml of the 400, 40, and 4 mg/ml are transferred to the cell-containing microplates with a multi-channel pipette (final concentration: 100, 10, and 1 mg/ml). Finally, […] of virus suspension is added to each well (with a repetitive “Eppendorf” multipipett). […] The plate is put into a plastic bag and incubated for six days in CO2 atmosphere.
To each well in the plate is added 50 ml of XTT ((2,3-bis[2-methoxy-4-nitro-5-sulfophenyl]-5-[(phenylamin o)carbonyl]-2H-tetrazolium hydroxide), (1 mg/ml 0.01-0.02 mM N-metyl-phenazonium methosulfate). After six hours of incubation in C02 atmosphere the plates are covered with adhesive plate sealers and gently mixed on a vortex. Optical densities are determined at a wavelength of 450 nm and a reference wavelength of 650 nm. The percent reduction of cytotoxocity caused by the virus infection is calculated as follows: [formula]

The target of the next data set is recombinant HIV-RT (Human immunodeficiency virus type 1 group M subtype B, UniProt P04585). Put plainly: Test I (HIVRT (rAdt)): direct inhibitory activity on HIV-RT. The format is biochemical. How it is done: 100 mM Tris-HCl pH 7.6, 100 mM KCl, 4 mM MgCl2, 4 mM DTT, 275 mg/ml BSA, 0.5 mg (rA)n(dT)12-18 and 0.3 mM ^3H-=dTTP (specific activity 18.000 cpm/mol). After 60 minutess of incubation 40 ml in duplicate were spotted on paper discs and washed in 5% TCA. After rinsing the paper discs in ethanol they were dried and counted in scintillation fluid.

[1] abbreviates: Human immunodeficiency virus 1, MT4.
Setting [2] is: Human immunodeficiency virus 1, MT4, Test A.
Setting [3] is: Human immunodeficiency virus 1, MT4, Test A, 100 μg/ml, read-out: % inhibition.
The mark [4] stands for this setting: headed 0.1 μg/ml (after 0.001 μg/ml).

Values joined by “and” are separate entries in the source; they are usually repeats but may differ in a detail not shown here. Equal values may be shown once. Read-outs that look alike come from different tables or passages of the source.

Consider `O=C(Nc1ccc(Cl)cn1)N[C@H]1CC1c1c(F)cccc1F` (some centres unmarked), for which the inhibition (usually the change of the read-out against control, counted positive when it falls) at 0.1 µg/mL was found to be 100% in the data set with HIV virus (setting [1]) and 98% at recombinant HIV-RT (0.1 μg/ml). In the data set with HIV virus (setting [1]), 10 µg/mL produced 100% inhibition. Further, the inhibition at 100 µg/mL in the data set with HIV virus (setting [1]) was found to be 100%; in the data set with HIV virus (setting [3]) it was 3%. In addition, the inhibition at 0.001 µg/mL came to 7% in the data set with HIV virus (Human immunodeficiency virus 1, MT4, Test A, 0.001 μg/ml) and 55% at recombinant HIV-RT (0.001 μg/ml). For the same compound, the values for the inhibition at 0.01 µg/mL in the data set on HIV virus (setting [2]) and at recombinant HIV-RT (0.01 μg/ml) were 80% and 89%, respectively. Also, the % inhibition (commonly the change of the read-out against control, counted positive when it falls) with HIV virus (0.001 μg/ml) was 8%; with HIV virus (1 μg/ml), 90%; at recombinant HIV-RT (0.001 μg/ml), 62%; at recombinant HIV-RT (0.01 μg/ml) it was 93%; on recombinant HIV-RT (0.1 μg/ml), 97%; on recombinant HIV-RT (setting [4]), 6% and 16%. Further, the inhibition at 1 µg/mL on recombinant HIV-RT (1 μg/ml) was determined as 100%.
With `CCOc1ccc(F)c(CCNC(=O)Nc2ccc(Br)cn2)c1Cl`, the “% inhibition” value at recombinant HIV-RT (setting [4]) is 13% and 18%.
For `CCOc1ccc(F)c(C2C[C@@H]2NC(=O)Nc2ccc(Cl)cn2)c1Cl` (some centres unmarked), the inhibition at 0.01 µg/mL with HIV virus (setting [2]) turned out to be 100%; on recombinant HIV-RT (0.01 μg/ml), 82%. Moreover, the inhibition at 0.1 µg/mL with HIV virus (Human immunodeficiency virus 1, MT4, Test A, 0.1 μg/ml, read-out: % inhibition) was 100%; on recombinant HIV-RT (0.1 μg/ml) it was 96%. Further, the inhibition at 1 µg/mL worked out at 87% in the data set with HIV virus (Human immunodeficiency virus 1, MT4, Test A, 1 μg/ml) and 99% at recombinant HIV-RT (1 μg/ml). In addition, in the data set on HIV virus (Human immunodeficiency virus 1, MT4, Test A, 10 μg/ml, read-out: % inhibition), the inhibition at 10 µg/mL is 88%. Besides, the inhibition at 100 µg/mL in the data set on HIV virus (setting [3]) came to 24%. In addition, the “% inhibition” value in the data set on HIV virus (100 μg/ml) worked out at 30%; on recombinant HIV-RT (0.001 μg/ml), 30%; at recombinant HIV-RT (0.01 μg/ml), 80%; at recombinant HIV-RT (1 μg/ml) it was 97%. The inhibition at 0.001 µg/mL on recombinant HIV-RT (0.001 μg/ml) worked out at 46%. For the same compound, on recombinant HIV-RT (read-out: IC50 (converted)), the IC50 – broadly, the concentration that inhibits the measured activity by half – is 2.86 nM and 5.21 nM.
`O=C(Nc1ccc(Cl)cn1)N[C@@H]1C[C@@H]1c1cccc([N+](=O)[O-])c1` (racemic) [Example 21, (+,−)-N-(cis-2-(3-Nitrophenyl)-cyclopropyl)-N′-(5-chloropyrid-2-yl)-urea]: at recombinant HIV-RT (read-out: IC50 (converted)), the IC50 is 150 nM.
Still for that read-out and setting: for `CC(=O)c1cccc([C@H]2C[C@H]2NC(=O)Nc2ccc(Cl)cn2)c1` (racemic) [Example 23, (+,−)-N-(cis-2-(3-Acetylphenyl)-cyclopropyl)-N′-(5-chloropyrid-2-yl)-urea] the value was 15.2 nM and 42.5 nM.
Take `O=C(Nc1ccc(Br)cn1)N[C@@H]1C[C@H]1c1c(F)cccc1F` (relative stereo) [Example 27, (1R,2S)-N-(cis-2-(2,6-Difluorophenyl)-cyclopropyl)-N′-(5-bromopyrid-2-yl)-urea]: the concentration for half-maximal inhibition (IC50) on recombinant HIV-RT was 0.5 ng/mL and 0.6 ng/mL.
As to `N#Cc1ccc(NC(=O)N[C@@H]2C[C@@H]2c2c(F)cccc2Cl)nc1` (relative stereo) [Example 33, N-(cis-2-(2-chloro-6-fluorophenyl)-cyclopropyl)-N′-(5-cyanopyrid-2-yl)-urea], the melting point – broadly, the temperature, or range, at which the solid turns liquid – came to 189 °C.
Regarding `COCOc1c(C(C)=O)ccc(F)c1[C@H]1C[C@H]1NC(=O)Nc1ccc(Cl)cn1` (relative stereo) [Example 56, (+,−)-N-(cis-2-(5-Acetyl-2-fluoro-6-methoxymethoxy-phenyl)cyclopropyl)-N′-(5-chloropyrid-2-yl)-urea], the IC50 on recombinant HIV-RT is 2.2 ng/mL.
Compound `CC(NC(=O)Nc1ccc(Br)cn1)c1ncccc1F` (centres unmarked) [Example 10, N-(3-Fluoropyrid-2-yl)eth-2yl-N′-(5-bromopyrid-2-yl)-urea] registered a melting point of 151 to 154 °C.
For `CC(=O)c1ccc(F)c(CCNC(=O)Nc2ccc(Cl)cn2)c1O` [Example 58], the IC50 on recombinant HIV-RT was found to be 38 ng/mL.

The values are drawn from patent US20040116418A1, “Compounds and methods for inhibition of HIV and related viruses” (Medivir AB, priority 1994, published 2004).
